This data set concerns BN Rats. Briefly: Incidence of skin rash in BN rats, time course study. In kind it is in vivo. How it is done: The protocol was modeled after that published previously (Shenton et al, Chem. Res. Toxicol. 2005, 18, 1799-1813, and Popovic et al, Chem. Res. Toxicol. 2006, 19, 1205-1214). After a 1-week acclimation period, the rats (n=3 per group) were either treated with the suspension vehicle (1% Tween® 20), or Nevirapine (NVP) (150 mg/kg/day) in suspension, or compounds of Formula I (dNVP) (150 mg/kg) in suspension. Animals were monitored for development of skin rash, and body weight. At the endpoint of the experiment, rats were humanely euthanized using carbon dioxide and exsanguinations.
At day 18, all animals in all three groups were euthanized as the experiment was deemed to have reached its ethical endpoint where no additional dosing was considered appropriate.

Take `Cc1ccnc2c1NC(=O)c1cccnc1N2C1CC1` [NVP, 11-Cyclopropyl-5,11-dihydro-4-methyl-6H-dipyrido[3,2,-b:2′,3′-e][1,4]-diazepin-2-one]: the “other visible signs (ears, eyes, feet, tail)” value (150 mg/kg/day in suspension, at approximately the two-week point) is “distinctly red ears, edematous eyes, purple feet, and a mottled tail”. The “behaviour / general health after dosing” value (150 mg/kg/day in suspension, over entire course of the experiment (to day 18)) is “inactivity and a lack of responsiveness for about three hours after each dosing”. Further, the “overall toxicity, NVP compared with compounds of Formula I” value (150 mg/kg/day in suspension, under controlled conditions) is listed as “substantially more toxic than compounds of Formula I”. The “development of skin lesions (skin rash)” value (n=3 per group, 150 mg/kg/day in suspension (1% Tween 20), observed to day 18) was “all NVP-treated animals displayed lesions, particularly around the dorsal area of the neck”.

(Values after patent US20080241289A1, “PREPARATION AND UTILITY OF NON-NUCLEOSIDE REVERSE TRANSCRIPTASE INHIBITORS” (AUSPEX PHARMACEUTICALS, INC., priority 2007, published 2008).)
